Measured values from US20260209202A1, “N-METHYL-4-(QUINOLIN-2-YL)PYRIDIN-2-AMINE COMPOUNDS” (Abbvie Inc., priority 2023, published 2026).

Experiments:
[1] = biological target: tau aggregates in globus pallidus and putamen of PSP brains (Homo sapiens, UniProt P10636); experiment: Homologous (self-) displacement in vitro autoradiography on FF PSP brain sections; assay type: binding; settings: 3 nM radioligand displaced by corresponding non-radiolabeled compound, mean of three PSP brains, read-out: sdKD (KD determined by means of self-displacement experiments)
Chain of tau aggregates in globus pallidus and putamen of PSP brains (Homo sapiens, UniProt P10636) (P10636 with tags, fused parts or gaps): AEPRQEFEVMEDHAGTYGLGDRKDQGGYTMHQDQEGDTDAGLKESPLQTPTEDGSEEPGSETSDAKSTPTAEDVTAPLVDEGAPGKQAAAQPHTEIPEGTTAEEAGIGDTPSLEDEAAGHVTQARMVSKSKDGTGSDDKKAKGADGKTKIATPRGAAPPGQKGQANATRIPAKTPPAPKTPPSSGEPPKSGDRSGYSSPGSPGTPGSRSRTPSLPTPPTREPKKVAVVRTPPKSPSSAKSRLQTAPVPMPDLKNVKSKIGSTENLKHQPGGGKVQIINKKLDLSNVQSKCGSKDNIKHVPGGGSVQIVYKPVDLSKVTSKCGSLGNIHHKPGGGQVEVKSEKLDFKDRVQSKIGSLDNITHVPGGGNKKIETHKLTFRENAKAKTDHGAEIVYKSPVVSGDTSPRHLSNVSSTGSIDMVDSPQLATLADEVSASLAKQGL
From the text: Brain Tissue. Flash-frozen (FF) tissue blocks, and, for some cases, the corresponding mirrored, formalin-fixed, paraffin-embedded (FFPE) tissue blocks from the globus pallidus and putamen of normal or Progressive Supranuclear Palsy (PSP) brains were purchased from Tissue Solutions Ltd (TS; Glasgow, UK). Both FF and FFPE tissue blocks were used to assess the distribution pattern of [3H] Compound (I) and [3H] Compound (II) binding to normal and PSP brain samples by means of in vitro autoradiography. Only FF tissue blocks were used to determine the affinity of [^3H] Compound (I) and [^3H] Compound (II) for PSP brain by means of in vitro autoradiography. […] The plates were read using a Phosphoimager Typhoon™ FLA-70001P (GE Healthcare, Chicago, IL USA). […] Quantitative analysis of the in vitro autoradiography results. Quantitative analysis was performed by computer assisted micro-densitometry (MCD; MCID basic, Interfocus, Devon, UK). […] Identification of the areas of interest was determined by reference to the Atlas of the Human Brain (Mai et al., 2015, Elsevier, ISBN:9780128028018). […]

[2] = test system: tau aggregates in globus pallidus and putamen of PSP brains; experiment: In vitro autoradiography of radioligand binding to sections of globus pallidus and putamen from PSP and normal brains; design: species or system human
From the text: Brain Tissue. Flash-frozen (FF) tissue blocks, and, for some cases, the corresponding mirrored, formalin-fixed, paraffin-embedded (FFPE) tissue blocks from the globus pallidus and putamen of normal or Progressive Supranuclear Palsy (PSP) brains were purchased from Tissue Solutions Ltd (TS; Glasgow, UK). Both FF and FFPE tissue blocks were used to assess the distribution pattern of [3H] Compound (I) and [3H] Compound (II) binding to normal and PSP brain samples by means of in vitro autoradiography. Only FF tissue blocks were used to determine the affinity of [^3H] Compound (I) and [^3H] Compound (II) for PSP brain by means of in vitro autoradiography. […]
In vitro autoradiography. […] The plates were read using a Phosphoimager Typhoon™ FLA-70001P (GE Healthcare, Chicago, IL USA). […]
Quantitative analysis of the in vitro autoradiography results. Quantitative analysis was performed by computer assisted micro-densitometry (MCD; MCID basic, Interfocus, Devon, UK). […] Identification of the areas of interest was determined by reference to the Atlas of the Human Brain (Mai et al., 2015, Elsevier, ISBN:9780128028018). […]

[3] = PET imaging in cynomolgus macaques, baseline and homologous self-block; assay type: in vivo; settings: for off-target binding in brain: healthy cynomolgus macaques; for blood brain barrier crossing / brain uptake and clearance: intravenous radiotracer
Method: PET imaging procedures in cynomolgus macaques were performed under the guidelines of the Institutional Animal Care and Use Committee. Anesthesia was maintained using isoflurane gas maintained at 1.25-3.0% for the duration of the imaging procedures. Prior to PET imaging, a head computed tomography (CT) was acquired using a Neurologica CereTom® CT system (Neurologica, Danvers, MA, USA) which was used for localization of the animal in the PET system, and later for attenuation correction of the PET data.
The radiotracer was administered as a bolus injection (3 mL over 2 minutes), and data collected in dynamic list mode emission acquisition was initiated using a Siemens Concorde microPET® Focus™ 220 (Siemens USA, Washington DC, USA) for 120 minutes. Arterial blood samples were acquired throughout the PET acquisition to measure radioactivity in whole blood and plasma and to assess the % parent and metabolite(s) for generation of an input function for kinetic modeling analysis. The whole blood arterial samples were acquired, initially rapidly (every 30 seconds) and decreased in frequency towards the end of the PET acquisition to every 30 minutes. Arterial whole blood samples were counted in a well counter (PerkinElmer Wizard® 1470; PerkinElmer, Waltham, MA, USA) for radioactivity concentration. Samples were then centrifuged (3000 RCF for 5 minutes) to allow extraction of plasma which was subsequently counted for radioactivity concentration. To determine the proportion of unchanged radiotracer, selected plasma samples (1, 2, 3, 4, 7, 9, 15, 20, 40, 60, 90, and 120 minutes) were extracted with equal volumes of acetonitrile, then injected onto a Dionex/Thermo Ultimate 3000 radio-HPLC system (ThermoFisher, Waltham, MA, USA) consisting of a Phenomenex® Onyx™ C18 10×100 mm column (Torrance, CA, USA), an Eckert and Ziegler coincidence BGO radiodetector (model B-FC-4100, Eckert and Ziegler, Atlanta, GA, USA) and a mobile phase of (A) 10 mM ammonium acetate and (B) acetonitrile. The conditions for [^18F] Compound (I) are: 0-2.5 min, 95% A at 4 mL/min; 2.5-2.6 min, 95% A to 50% A at 4 mL/min to 3 mL/min; 2.6-10 min, 50% A at 3 mL/min; 10-10.1 min, 50% A to 95% A at 3 mL/min to 4 mL/min; 10.1-13 min, 95% A at 4 mL/min. Retention time for [^18F] Compound (I) was 8.4 min. The conditions for [^18F] Compound (II) are: 0-2.5 min, 95% A at 4 mL/min; 2.5-2.6 min, 95% A to 65% A at 4 mL/min to 3 mL/min; 2.6-10 min, 65% A at 3 mL/min; 10-10.1 min, 65% A to 95% A at 3 mL/min to 4 mL/min; 10.1-13 min, 95% A at 4 mL/min. Retention time for [^18F] Compound (II) was 9.3 min. Arterial sampling data was used to generate the input function for kinetic modeling. Potential off-target specific binding in the brain was evaluated for each lead radiotracer using a pre-dosing paradigm in which PET was performed after administration of a 1 mg/kg homologous dose of the non-radioactive tracer over a 15-minute infusion 20 minutes prior to radiotracer injection.
Upon the completion of PET image acquisition, anesthesia was terminated, primates were monitored until fully alert, then transported to their cages. In addition to PET imaging, each primate underwent separate MRI imaging (GE Discovery™ 3T MR750 MRI scanner and GE Signa™ HDxt 1.5T MRI scanner, GE Healthcare, Chicago, IL, USA) for acquisition of a structural T1w image for purposes of co-registration and transformation to a standard atlas space. The PET data analysis was performed, and images were reconstructed using Siemens MicroPET® Manager and AsiPro (Siemens) software. PET list mode data was binned into sinograms with time frames of 6×30 seconds, 3×1 minutes, 2×2 minutes, 22×5 minutes. Images were reconstructed using filtered back projection using a Hanning filter with a 0.5 cycles/pixel cutoff. Corrections for attenuation (using the acquired CT), scatter, and deadtime correction were applied. Furthermore, the dynamic images were decay-corrected to start of PET acquisition, which coincided with the radiotracer injection. […]

For `CNc1cc(-c2ccc3cc(OCCOC)cc(F)c3n2)ccn1` [[^3H] Compound (I)] [4-[8-fluoro-6-(2-methoxyethoxy)quinolin-2-yl]-N—(^3H3)methylpyridin-2-amine], the Kd [1] was 12.4 nM.

In the case of `[3H]C([3H])([3H])Nc1cc(-c2ccc3cc(OCCOC)cc(F)c3n2)ccn1` [[^3H] Compound (I)] [4-[8-fluoro-6-(2-methoxyethoxy)quinolin-2-yl]-N—(^3H3)methylpyridin-2-amine], the “amount of radioligand bound to the tissue, PSP brains versus normal brains” value ([2]; 3 nM radioligand, grey matter of FF globus pallidus and putamen sections) is reported as 2.1 times and the “selectivity for tau aggregates in PSP affected brain tissue as compared to healthy brain tissue” value ([2]; globus pallidus and putamen) is reported as “high degree of selectivity”.

For `CNc1cc(-c2ccc3cc(OCCOC)cc([18F])c3n2)ccn1` [[^18F] Compound (I), 4-[8-(^18F)fluoro-6-(2-methoxyethoxy)quinolin-2-yl]-N-methylpyridin-2-amine], the “off-target binding in brain” value [3] was “did not show significant off-target binding”, the “relative brain uptake among the tracers” value ([3]; initial brain SUV after injection) was “highest uptake” and the “blood brain barrier crossing” value [3] was “ability to cross the blood brain barrier”. For the same molecule, the “brain uptake and clearance” value [3] was “rapid uptake and rapid clearance”.

In the case of `CNc1cc(-c2ccc3cc(N4CC(O)(C[18F])C4)ccc3n2)ccn1` [[^18F] Compound (II), 3-[(^18F)fluoromethyl]-1-{2-[2-(methylamino)pyridin-4-yl]quinolin-6-yl}azetidin-3-ol], the “off-target binding in brain” value [3] is reported as “did not show significant off-target binding”, the “blood brain barrier crossing” value [3] is reported as “ability to cross the blood brain barrier” and the “brain uptake and clearance” value [3] is reported as “rapid uptake and rapid clearance”.
